Measured values taken from ChEMBL document CHEMBL5696442, “Discovery of type II inhibitors of TGFβ-activated kinase 1 (TAK1) and mitogen-activated protein kinase kinase kinase kinase 2 (MAP4K2)” (J Med Chem, 2015).

Experiments:
[1] = molecular target: Serine/threonine-protein kinase PLK1 (Homo sapiens) (UniProt P53350); assay: Inhibition of PLK1 Lys1 labeling site harbouring CFEISDADTKEVFAGKIVPK in human Huh-7 cell lysate at 1 uM by KiNativ Profiling analysis relative to control; format: subcellular
Chain of Serine/threonine-protein kinase PLK1 (Homo sapiens) (P53350 whole entry): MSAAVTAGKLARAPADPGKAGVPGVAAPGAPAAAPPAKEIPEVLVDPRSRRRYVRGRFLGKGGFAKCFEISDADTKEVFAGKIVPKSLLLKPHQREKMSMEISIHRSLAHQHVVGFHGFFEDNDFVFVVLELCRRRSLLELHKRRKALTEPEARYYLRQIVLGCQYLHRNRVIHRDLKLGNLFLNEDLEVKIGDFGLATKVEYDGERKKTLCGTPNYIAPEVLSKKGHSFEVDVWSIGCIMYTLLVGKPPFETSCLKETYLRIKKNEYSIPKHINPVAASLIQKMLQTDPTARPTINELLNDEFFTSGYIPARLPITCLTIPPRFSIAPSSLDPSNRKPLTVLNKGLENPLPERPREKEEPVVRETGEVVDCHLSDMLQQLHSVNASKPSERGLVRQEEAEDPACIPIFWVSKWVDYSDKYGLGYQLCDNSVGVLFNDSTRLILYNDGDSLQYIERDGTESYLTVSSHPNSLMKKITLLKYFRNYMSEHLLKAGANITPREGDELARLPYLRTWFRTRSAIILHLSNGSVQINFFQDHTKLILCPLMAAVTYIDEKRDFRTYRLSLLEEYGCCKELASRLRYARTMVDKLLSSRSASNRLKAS

[2] = molecular target: T1, Serine/threonine-protein kinase TAO1 (Homo sapiens) (UniProt Q7L7X3); assay: Inhibition of TAO1 Lys2 labeling site in human Huh-7 cell lysate at 1 uM by KiNativ Profiling analysis relative to control; format: subcellular
T1 sequence (whole entry): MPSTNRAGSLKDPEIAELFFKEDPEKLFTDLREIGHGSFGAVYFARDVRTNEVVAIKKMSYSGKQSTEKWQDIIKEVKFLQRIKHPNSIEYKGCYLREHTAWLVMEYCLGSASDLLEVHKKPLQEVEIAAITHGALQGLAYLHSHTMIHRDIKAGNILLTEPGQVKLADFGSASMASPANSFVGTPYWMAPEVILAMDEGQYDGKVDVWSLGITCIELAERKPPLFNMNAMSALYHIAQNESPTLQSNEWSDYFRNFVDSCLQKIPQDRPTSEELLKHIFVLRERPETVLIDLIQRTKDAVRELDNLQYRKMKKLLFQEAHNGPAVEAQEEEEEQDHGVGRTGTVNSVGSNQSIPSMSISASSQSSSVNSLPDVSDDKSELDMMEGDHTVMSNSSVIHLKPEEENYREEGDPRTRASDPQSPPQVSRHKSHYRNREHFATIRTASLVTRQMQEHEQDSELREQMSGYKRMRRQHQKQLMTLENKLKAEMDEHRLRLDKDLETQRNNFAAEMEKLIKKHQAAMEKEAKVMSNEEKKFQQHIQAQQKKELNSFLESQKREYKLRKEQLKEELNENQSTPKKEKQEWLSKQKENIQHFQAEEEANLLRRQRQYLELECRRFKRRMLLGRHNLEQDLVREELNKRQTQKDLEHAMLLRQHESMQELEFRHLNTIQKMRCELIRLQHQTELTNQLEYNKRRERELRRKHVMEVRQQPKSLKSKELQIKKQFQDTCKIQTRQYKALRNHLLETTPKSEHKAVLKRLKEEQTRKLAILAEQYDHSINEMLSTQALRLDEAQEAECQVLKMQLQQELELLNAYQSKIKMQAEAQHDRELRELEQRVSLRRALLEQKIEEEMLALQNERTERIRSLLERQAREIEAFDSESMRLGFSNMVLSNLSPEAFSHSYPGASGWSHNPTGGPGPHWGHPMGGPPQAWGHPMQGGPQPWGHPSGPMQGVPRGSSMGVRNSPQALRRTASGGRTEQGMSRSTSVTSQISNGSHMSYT

[3] = molecular target: T2, NUAK family SNF1-like kinase 1 (Homo sapiens) (UniProt O60285); assay: Inhibition of NuaK1 Lys2 labeling site in human Huh-7 cells at 1 uM by KiNativ Profiling analysis relative to control; format: cell-based
T2 sequence (whole entry): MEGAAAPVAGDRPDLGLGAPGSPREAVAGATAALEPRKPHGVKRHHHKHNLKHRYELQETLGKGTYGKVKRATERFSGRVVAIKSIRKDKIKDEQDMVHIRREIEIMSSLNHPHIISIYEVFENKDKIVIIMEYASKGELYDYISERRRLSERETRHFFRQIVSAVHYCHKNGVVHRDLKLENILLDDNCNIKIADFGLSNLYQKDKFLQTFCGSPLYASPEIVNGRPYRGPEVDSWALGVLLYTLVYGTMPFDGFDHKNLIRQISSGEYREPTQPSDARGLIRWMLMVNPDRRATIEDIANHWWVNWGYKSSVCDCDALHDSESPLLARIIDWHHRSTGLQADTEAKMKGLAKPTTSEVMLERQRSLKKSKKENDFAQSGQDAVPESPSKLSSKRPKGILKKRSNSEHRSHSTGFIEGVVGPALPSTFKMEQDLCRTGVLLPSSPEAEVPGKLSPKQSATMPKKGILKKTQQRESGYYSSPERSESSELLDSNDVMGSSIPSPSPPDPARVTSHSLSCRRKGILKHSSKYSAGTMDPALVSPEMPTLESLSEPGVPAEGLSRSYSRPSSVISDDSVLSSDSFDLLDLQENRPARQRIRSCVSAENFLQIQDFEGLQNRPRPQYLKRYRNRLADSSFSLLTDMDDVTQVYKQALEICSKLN

[4] = molecular target: T3, Dual specificity mitogen-activated protein kinase kinase 7 (Homo sapiens) (UniProt O14733); assay: Inhibition of MAP2K7 Lys2 labeling site in human A-375 cells at 5 uM by KiNativ Profiling analysis relative to control; format: cell-based
T3 sequence (whole entry): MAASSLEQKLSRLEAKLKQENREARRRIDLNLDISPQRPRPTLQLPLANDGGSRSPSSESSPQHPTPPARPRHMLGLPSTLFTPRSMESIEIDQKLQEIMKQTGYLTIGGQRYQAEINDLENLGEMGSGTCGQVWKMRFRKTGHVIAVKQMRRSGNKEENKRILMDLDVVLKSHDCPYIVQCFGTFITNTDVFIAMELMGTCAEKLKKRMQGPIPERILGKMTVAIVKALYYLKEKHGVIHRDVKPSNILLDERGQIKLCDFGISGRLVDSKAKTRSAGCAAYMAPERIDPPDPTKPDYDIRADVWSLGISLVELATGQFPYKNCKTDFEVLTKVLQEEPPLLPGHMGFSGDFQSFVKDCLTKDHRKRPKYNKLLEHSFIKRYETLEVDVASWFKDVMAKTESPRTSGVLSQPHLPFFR

[5] = molecular target: MAP kinase-interacting serine/threonine-protein kinase 2 (Homo sapiens) (UniProt Q9HBH9); assay: Inhibition of MKNK2 (unknown origin) at 1 uM by Ambit Kinomescan binding assay relative to control; values are per cent of control
Chain of MAP kinase-interacting serine/threonine-protein kinase 2 (Homo sapiens) (Q9HBH9 whole entry, looked up): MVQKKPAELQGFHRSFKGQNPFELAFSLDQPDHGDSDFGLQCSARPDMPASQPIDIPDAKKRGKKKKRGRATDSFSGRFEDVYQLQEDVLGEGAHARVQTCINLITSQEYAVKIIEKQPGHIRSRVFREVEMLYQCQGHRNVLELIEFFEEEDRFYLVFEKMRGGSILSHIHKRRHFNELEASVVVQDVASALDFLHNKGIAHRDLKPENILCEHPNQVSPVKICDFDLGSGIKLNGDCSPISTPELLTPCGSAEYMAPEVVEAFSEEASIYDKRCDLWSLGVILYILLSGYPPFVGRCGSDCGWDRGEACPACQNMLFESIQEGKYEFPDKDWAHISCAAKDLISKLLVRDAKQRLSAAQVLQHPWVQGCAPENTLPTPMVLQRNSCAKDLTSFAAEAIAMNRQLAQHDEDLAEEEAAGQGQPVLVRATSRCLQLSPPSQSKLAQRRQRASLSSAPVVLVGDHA

[6] = test system: Epidermal growth factor receptor (Homo sapiens), P00533 [UNDEFINED MUTATION]; assay: Inhibition of EGFR S752-I759del mutant (unknown origin) at 10 uM by Ambit Kinomescan binding assay relative to control
Chain of Epidermal growth factor receptor (Homo sapiens), P00533 [UNDEFINED MUTATION] (P00533 whole entry, looked up, stated change not applied): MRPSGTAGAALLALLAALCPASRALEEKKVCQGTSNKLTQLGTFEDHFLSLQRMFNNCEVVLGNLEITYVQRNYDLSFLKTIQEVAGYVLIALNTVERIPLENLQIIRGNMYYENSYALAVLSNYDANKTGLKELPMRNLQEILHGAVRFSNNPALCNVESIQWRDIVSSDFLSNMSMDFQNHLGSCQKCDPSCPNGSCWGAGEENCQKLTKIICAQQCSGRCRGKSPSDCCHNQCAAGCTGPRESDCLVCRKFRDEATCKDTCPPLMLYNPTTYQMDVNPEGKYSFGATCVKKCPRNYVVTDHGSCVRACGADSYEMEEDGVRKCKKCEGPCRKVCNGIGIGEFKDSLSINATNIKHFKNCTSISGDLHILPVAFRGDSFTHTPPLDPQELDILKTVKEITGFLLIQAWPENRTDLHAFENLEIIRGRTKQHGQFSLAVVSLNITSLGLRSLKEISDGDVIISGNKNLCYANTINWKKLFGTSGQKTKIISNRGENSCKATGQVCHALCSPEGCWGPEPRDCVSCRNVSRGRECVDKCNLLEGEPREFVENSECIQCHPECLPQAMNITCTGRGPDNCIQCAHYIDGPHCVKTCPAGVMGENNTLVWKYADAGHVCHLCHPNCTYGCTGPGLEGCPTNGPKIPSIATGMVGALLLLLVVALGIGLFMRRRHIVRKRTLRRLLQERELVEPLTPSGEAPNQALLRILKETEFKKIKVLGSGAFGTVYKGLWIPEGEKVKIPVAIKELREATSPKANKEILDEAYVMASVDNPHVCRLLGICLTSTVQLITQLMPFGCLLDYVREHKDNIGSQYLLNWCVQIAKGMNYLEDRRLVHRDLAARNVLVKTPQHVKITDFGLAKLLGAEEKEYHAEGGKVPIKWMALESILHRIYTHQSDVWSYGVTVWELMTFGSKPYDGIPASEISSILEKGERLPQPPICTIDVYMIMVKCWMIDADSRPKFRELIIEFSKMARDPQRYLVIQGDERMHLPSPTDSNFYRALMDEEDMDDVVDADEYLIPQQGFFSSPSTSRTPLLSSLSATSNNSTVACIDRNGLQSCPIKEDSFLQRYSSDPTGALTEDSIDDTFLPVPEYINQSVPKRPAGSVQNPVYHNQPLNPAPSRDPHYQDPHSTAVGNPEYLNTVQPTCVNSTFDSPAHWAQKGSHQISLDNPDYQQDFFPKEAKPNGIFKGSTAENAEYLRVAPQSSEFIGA

[7] = molecular target: Fibroblast growth factor receptor 2 (Homo sapiens) (UniProt P21802); assay: Inhibition of FGFR2 (unknown origin) at 10 uM by Ambit Kinomescan binding assay relative to control; values are per cent of control
Chain of Fibroblast growth factor receptor 2 (Homo sapiens) (P21802 22-821 limits assumed): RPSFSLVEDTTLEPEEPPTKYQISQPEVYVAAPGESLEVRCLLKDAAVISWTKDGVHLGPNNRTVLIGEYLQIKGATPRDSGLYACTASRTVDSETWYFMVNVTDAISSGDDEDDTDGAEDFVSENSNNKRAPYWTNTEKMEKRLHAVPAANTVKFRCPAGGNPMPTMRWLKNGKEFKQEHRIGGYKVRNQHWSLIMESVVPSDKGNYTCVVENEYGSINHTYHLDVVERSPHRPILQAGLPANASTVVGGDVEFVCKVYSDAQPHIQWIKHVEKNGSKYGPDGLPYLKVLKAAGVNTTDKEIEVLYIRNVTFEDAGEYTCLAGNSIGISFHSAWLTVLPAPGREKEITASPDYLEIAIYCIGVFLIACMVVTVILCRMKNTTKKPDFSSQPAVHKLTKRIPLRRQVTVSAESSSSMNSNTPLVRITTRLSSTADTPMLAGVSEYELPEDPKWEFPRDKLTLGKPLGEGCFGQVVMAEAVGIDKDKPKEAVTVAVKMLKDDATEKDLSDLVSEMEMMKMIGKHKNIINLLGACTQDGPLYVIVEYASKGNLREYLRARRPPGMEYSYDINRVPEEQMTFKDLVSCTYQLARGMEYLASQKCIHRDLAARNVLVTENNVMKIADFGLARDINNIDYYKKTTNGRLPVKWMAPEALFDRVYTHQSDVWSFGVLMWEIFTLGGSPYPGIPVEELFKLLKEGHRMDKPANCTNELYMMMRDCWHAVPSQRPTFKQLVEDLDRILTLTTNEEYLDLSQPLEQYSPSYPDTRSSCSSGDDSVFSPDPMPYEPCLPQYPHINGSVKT

## CNc1cc(Oc2cc(C(=O)Nc3cc(N4CCN(C)CC4)cc(C(F)(F)F)c3)ccc2C)ncn1
[1]
  inhibition: 1%
[2]
  inhibition: -1.2%
[3]
  inhibition: 20.5%

## CCN1CCN(Cc2ccc(NC(=O)c3ccc(C)c(/C=C/c4cnc5[nH]ccc5c4OC)c3)cc2C(F)(F)F)CC1
[4]
  inhibition: 57%
[5]
  residual activity: 48%

## CCN1CCN(Cc2ccc(NC(=O)c3ccc(C)c(Oc4ccnc5[nH]ccc45)c3)cc2C(F)(F)F)CC1
[6]
  inhibition: 4.6%
[7]
  percent of control: 1.4%
